Measured values as given in US11234960B2, “Compositions and methods for improving mitochondrial function and treating neurodegenerative diseases and cognitive disorders” (Amazentis SA, priority 2010, dated 2022).

Assays:
HFD-fed C57BL6/J mice [1] = assay: Oral glucose tolerance test in HFD-fed mice; type: in vivo; details: 10 weeks of treatment (FIG. 24)
Method: Mice in different treatment groups were administered (i) urolithin A mixed with food (food admix) to reach a dosing of 55 mg/kg body weight/day (mkd); (ii) ellagic acid mixed with food (food admix) to reach a dosing of 75 mkd; (iii) punicalagin (gavage) to reach a dosing of 90 mkd; or (iv) pomegranate extract (PE) (gavage) to reach a dosing of 140 mkd of total polyphenols. A typical pomegranate extract used in these experiments had the following composition: polyphenols, 140 mkd; punicalagin, 13.1 mkd; and ellagic acid, 13.2 mkd. For animals treated by gavage, gavage was performed daily (7 days/week) between 8:00 and 10:00 a.m.; compounds were mixed with saline solution (0.9% NaCl) and provided at a final volume of 5 mL/kg of body weight. Mice in high-fat control groups were fed with the same diet as the experimental animals. Mice in corresponding different control groups were administered either high-fat diet alone or high-fat diet plus daily gavage with vehicle (saline). Another control group of mice were fed standard chow diet alone.
Male C57BL6/J mice were grouped and treated as described in Example 7. In addition, glucose tolerance test (GTT) was performed for HFD-fed mice which developed glucose intolerance. Glucose tolerance test was monitored 10 weeks after the initiation of the treatment by Oral Glucose Tolerance Test (oGTT). Animals were fasted for 12 h (from 8 pm to 8 am) before oGTT. The day of the oGTT, a small drop of blood (<2 μL) was collected from the lateral tail vein and glycemia was monitored using a glucometer (AccuCheck Aviva, Roche Diagnosis). Each animal then received, at time 0, an oral dose of D-glucose at a dosing of 2 g/kg body weight. Glycemia was then monitored at times 15, 30, 45, 60, 90, 120, and 150 min after oral glucose load.

HFD-fed C57BL6/J mice [2] = assay: Indirect calorimetry (CLAMS) in HFD-fed mice; type: in vivo; details: for respiratory exchange ratio (RER): HFD-fed mice (FIGS. 22A, 22B); for energy expenditure (oxygen consumption, VO2): HFD-fed mice, 8 weeks after initiation of treatment (FIGS. 20A, 20B)
Method: Mice in different treatment groups were administered (i) urolithin A mixed with food (food admix) to reach a dosing of 55 mg/kg body weight/day (mkd); (ii) ellagic acid mixed with food (food admix) to reach a dosing of 75 mkd; (iii) punicalagin (gavage) to reach a dosing of 90 mkd; or (iv) pomegranate extract (PE) (gavage) to reach a dosing of 140 mkd of total polyphenols. […] For animals treated by gavage, gavage was performed daily (7 days/week) between 8:00 and 10:00 a.m.; compounds were mixed with saline solution (0.9% NaCl) and provided at a final volume of 5 mL/kg of body weight.
In addition, however, basal energy expenditure of mice was measured by indirect calorimetry oxygen consumption, carbon dioxide production, and respiratory exchange ratio), 8 weeks after the initiation of treatment for the HFD-fed mice and 2 weeks after the initiation of treatment for standard show diet-fed mice, using the Comprehensive Laboratory Animal Monitoring System (CLAMS; Columbus Instruments, Columbus, Ohio, USA). Animals were first acclimatized for 22 h to CLAMS cages (room temperature 22° C.±1° C.) starting between 11 to 12 am. Then measurement was performed for at least 20 h in the same condition. Measurement included an entire dark cycle. Parameters measured during CLAMS were the following: (i) Oxygen consumption (VO2 in mL/kg/h): VO2 is directly correlated to energy expenditure; (ii) Carbon dioxide production (VCO2 in mL/kg/h); and (iii) Respiratory Exchange Ratio (RER): VCO2/VO2: RER is an indicator of the use of energy substrate.

citrate synthase = assay: Citrate synthase activity in C2C12 myotubes; type: cell-based; details: 48 hr, punicalagin 1 or 10 μM, ellagic acid or urolithin 1, 10 or 50 μM (FIG. 4)
Method: The enzyme citrate synthase catalyzes the reaction between acetyl coenzyme A (acetyl CoA) and oxaloacetic acid to form citric acid. The acetyl CoA contributes 2 carbons to the 4 carbons of oxaloacetate, resulting in citrate with 6 carbons. The hydrolysis of the thioester of acetyl CoA results in the formation of CoA with a thiol group (CoA-SH). The activity of citrate synthase is measured via the reaction between the thiol of CoA-SH with the DTNB in the mixture to form 5-thio-2-nitrobenzoic acid (TNB). This yellow product (TNB) is observed spectrophotometrically by measuring absorbance at 412 nm (Citrate Synthase Assay Kit, Cat Number CS0720, Sigma Aldrich).
C2C12 myoblasts were differentiated into myotubes by serum deprivation for 4 days (Canto et al. (2009) Nature. 458:1056-60). Myotubes were incubated for 48 hr with punicalagin at a final concentration of 1 or 10 μM or with ellagic acid or urolithin at a final concentration of 1, 10 or 50 μM (all dissolved in DMSO, final concentration 0.1%). DMSO was used as a control (final concentration 0.1%). At the end of the treatment, cells were washed 3 times with PBS and assayed for citrate synthase activity according to manufacturer's instructions (Citrate Synthase Assay Kit, Cat Number CS0720, Sigma Aldrich).

[3] = system: C2C12 myotubes (PGC-1α, Tfam, PFKFB3, CPT1b, MCAD, LCAD, Ndufa2, Cyt c, Mfn2); assay: Mitochondrial gene expression by real time quantitative PCR in C2C12 myotubes; type: cell-based; details: 48 hr, 1, 10 or 50 μM, vs DMSO control (FIG. 3)
Method: To assess the effects of compounds on mitochondrial gene expression, C2C12 myoblasts were differentiated into myotubes by serum deprivation for 4 days (Cantó et al. (2009) Nature. 458:1056-60). Myotubes were incubated for 48 hr with ellagic acid or urolithin A at a final concentration of 1, 10 or 50 μM (all dissolved in DMSO, final concentration 0.1%). DMSO was used as a control (final concentration 0.1%). At the end of the treatment, cells were washed with phosphate buffered saline (PBS) and mRNA were immediately extracted according to manufacturer's instructions (Trizol Reagent, Invitrogen) by adding 1 mL of Trizol reagent. After extraction, cDNA were produced by reverse transcription according to manufacturer's instructions.
Assessment of the expression levels of genes (PGC-1α, Tfam, PFKFB3, CPT1b, MCAD, LCAD, Ndufa2, Cyt c, and Mfn2) which control the mitochondrial function was performed by real time quantitative PCR (Watanabe et al. (2004) J Clin Invest. 113:1408-18) by using the following set of primers (Fwd: forward primer; Rev: reverse primer): […]
PGC-1α (PPARγ-coregulator 1α) and Tfam (mitochondrial transcription factor A) are master regulators of the mitochondrial function, namely of mitochondrial biogenesis and mitochondrial phosphorylative oxidation (mOXPHOS). […]

SMILES | glucose tolerance (oGTT, glycemia after 2 g/kg D-glucose) (HFD-fed C57BL6/J mice [1]) | respiratory exchange ratio (RER) (HFD-fed C57BL6/J mice [2]) | energy expenditure (oxygen consumption, VO2) (HFD-fed C57BL6/J mice [2]) | citrate synthase activity (citrate synthase) | mitochondrial activity by expression of mitochondrial genes [3]
O=C1O[C@H]2[C@@H]3OC(=O)c4cc(O)c(O)c(O)c4-c4c(O)c(O)c5oc(=O)c6c(c(O)c(O)c7oc(=O)c4c5c76)-c4c(cc(O)c(O)c4O)C(=O)OC[C@H]3OC(O)[C@@H]2OC(=O)c2cc(O)c(O)c(O)c2-c2c1cc(O)c(O)c2O (mixture of isomers) [punicalagin, 2,3 hexahydroxydiphenoyl-4,6-gallagylglucose] | improved glucose tolerance | significantly decreased RER | increased energy expenditure | increase citrate synthase activity in a dose-dependent manner | 
O=c1oc2c(O)c(O)cc3c(=O)oc4c(O)c(O)cc1c4c23 [ellagic acid] | improved glucose tolerance |  |  | increase citrate synthase activity in a dose-dependent manner | increase mitochondrial activity in a dose-dependent manner
O=c1oc2cc(O)ccc2c2ccc(O)cc12 [urolithin A, 3,8-Dihydroxydibenzo-α-pyrone] | improved glucose tolerance | significantly decreased RER | increased energy expenditure | increase citrate synthase activity in a dose-dependent manner | increase mitochondrial activity in a dose-dependent manner
